Measured values published in patent US9062124B2, “GIP-based mixed agonists for treatment of metabolic disorders and obesity” (priority 2008, dated 2015).
Where a SMILES comes first, the peptide text is derived from it. Bridges are numbered along the chain shown (N, C = ends).

Experiments:
Type in all cases: cell-based
GLP-1 receptor = target: T1, GLP-1 receptor (Homo sapiens, UniProt P43220); experiment: cAMP synthesis functional assay (firefly luciferase reporter in HEK293 cells), GLP-1 receptor; settings: Table 1; for GLP-1 Receptor relative activity: relative to the native hormone of the indicated receptor
T1 construct: expressed in transfected cells; host or cells: HEK293

glucagon receptor = target: T2, glucagon receptor (Homo sapiens, UniProt P47871); experiment: cAMP synthesis functional assay (firefly luciferase reporter in HEK293 cells), glucagon receptor; settings: Table 1; relative to the native hormone of the indicated receptor
T2 construct: expressed in transfected cells; host or cells: HEK293

GIP receptor = target: T3, GIP receptor (Homo sapiens, UniProt P48546); experiment: cAMP synthesis functional assay (firefly luciferase reporter in HEK293 cells), GIP receptor; settings: Table 1; relative to the native hormone of the indicated receptor
T3 construct: expressed in transfected cells; host or cells: HEK293
T3 sequence (P48546 22-466): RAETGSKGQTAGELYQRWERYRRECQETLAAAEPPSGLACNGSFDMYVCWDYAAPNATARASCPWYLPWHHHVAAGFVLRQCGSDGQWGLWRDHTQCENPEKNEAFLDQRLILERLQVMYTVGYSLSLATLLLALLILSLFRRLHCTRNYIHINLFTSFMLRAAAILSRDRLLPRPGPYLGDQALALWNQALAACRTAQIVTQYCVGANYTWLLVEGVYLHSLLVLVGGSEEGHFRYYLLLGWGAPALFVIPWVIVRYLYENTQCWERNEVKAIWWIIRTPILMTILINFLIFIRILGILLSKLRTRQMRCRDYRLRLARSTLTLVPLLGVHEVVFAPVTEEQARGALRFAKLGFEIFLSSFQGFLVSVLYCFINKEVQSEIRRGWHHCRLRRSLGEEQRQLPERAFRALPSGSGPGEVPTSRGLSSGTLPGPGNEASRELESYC

T2 sequence (P47871 26-477): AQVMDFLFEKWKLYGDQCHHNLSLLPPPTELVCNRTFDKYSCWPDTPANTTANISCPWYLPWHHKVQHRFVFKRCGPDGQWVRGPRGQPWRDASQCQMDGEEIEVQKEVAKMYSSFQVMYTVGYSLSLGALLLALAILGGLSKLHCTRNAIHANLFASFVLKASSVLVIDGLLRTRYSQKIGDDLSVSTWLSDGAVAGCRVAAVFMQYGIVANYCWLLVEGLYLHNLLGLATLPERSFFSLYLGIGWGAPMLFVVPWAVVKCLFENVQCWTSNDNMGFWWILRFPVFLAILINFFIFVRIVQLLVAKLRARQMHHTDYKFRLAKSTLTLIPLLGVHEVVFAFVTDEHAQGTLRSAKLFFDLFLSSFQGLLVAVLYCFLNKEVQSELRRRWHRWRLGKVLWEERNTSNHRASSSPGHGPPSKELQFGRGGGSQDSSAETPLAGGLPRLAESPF
T1 sequence (P43220 24-463, species assumed): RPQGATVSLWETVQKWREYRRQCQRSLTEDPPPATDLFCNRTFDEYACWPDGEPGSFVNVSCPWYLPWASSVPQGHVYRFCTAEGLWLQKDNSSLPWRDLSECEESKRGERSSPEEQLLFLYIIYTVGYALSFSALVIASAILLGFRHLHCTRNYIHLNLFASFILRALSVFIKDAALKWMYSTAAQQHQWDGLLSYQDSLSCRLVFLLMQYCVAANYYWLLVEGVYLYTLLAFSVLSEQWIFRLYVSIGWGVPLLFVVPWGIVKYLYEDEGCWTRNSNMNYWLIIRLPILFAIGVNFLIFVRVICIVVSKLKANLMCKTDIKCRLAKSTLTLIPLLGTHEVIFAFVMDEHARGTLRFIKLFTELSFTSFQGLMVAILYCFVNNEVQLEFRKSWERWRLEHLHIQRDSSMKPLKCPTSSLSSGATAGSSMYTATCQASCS

SMILES | GLP-1 Receptor relative activity (GLP-1 receptor) [%] | Glucagon Receptor relative activity (glucagon receptor) [%] | GIP Receptor relative activity (GIP receptor) [%] | EC50 (GLP-1 receptor; GLP-1 Receptor EC50, nM) [nM]
CC[C@H](C)[C@H](NC(=O)[C@H](Cc1ccccc1)NC(=O)[C@H](CCC(=O)O)NC(=O)[C@@H]1CCCCNC(=O)CC[C@H](NC(=O)[C@H](CC(=O)O)NC(=O)[C@H](CC(C)C)NC(=O)[C@H](C)NC(=O)[C@H](CCCCN)NC(=O)[C@H](CO)NC(=O)[C@H](Cc2ccc(O)cc2)NC(=O)[C@H](CC(=O)O)NC(=O)[C@H](CO)NC(=O)[C@@H](NC(=O)[C@H](Cc2ccccc2)NC(=O)[C@@H](NC(=O)CNC(=O)[C@H](CCC(N)=O)NC(=O)[C@H](CO)NC(=O)[C@@H](N)Cc2c[nH]cn2)[C@@H](C)O)[C@@H](C)CC)C(=O)N[C@@H]([C@@H](C)CC)C(=O)N[C@@H](Cc2c[nH]cn2)C(=O)N[C@@H](CCC(N)=O)C(=O)N1)C(=O)N[C@@H](C)C(=O)N[C@@H](Cc1c[nH]c2ccccc12)C(=O)N[C@@H](CC(C)C)C(=O)N[C@@H](CCSC)C(=O)N[C@@H](CC(N)=O)C(=O)N[C@H](C(N)=O)[C@@H](C)O [mt-108] (H-HSQGTFISDYSKALDEIHQKEFIAWLMNT-NH2; lactam 16-20; N-terminus assumed) | 12.50 | 68.42 | 0.52 | 
CC[C@H](C)[C@@H]1NC(=O)[C@@H](NC(=O)[C@H](CC(=O)O)NC(=O)[C@H](CC(C)C)NC(=O)[C@H](Cc2ccc(O)cc2)NC(=O)[C@H](CCCCN)NC(=O)[C@H](CO)NC(=O)[C@H](Cc2ccc(O)cc2)NC(=O)[C@H](CC(=O)O)NC(=O)[C@H](CO)NC(=O)[C@@H](NC(=O)[C@H](Cc2ccccc2)NC(=O)[C@@H](NC(=O)CNC(=O)[C@H](CCC(N)=O)NC(=O)[C@H](CO)NC(=O)[C@@H](N)Cc2ccc(O)cc2)[C@@H](C)O)[C@@H](C)O)CCC(=O)NCCCC[C@@H](C(=O)N[C@@H](CC(=O)O)C(=O)N[C@@H](Cc2ccccc2)C(=O)N[C@H](C(=O)N[C@@H](CC(N)=O)C(=O)N[C@@H](Cc2c[nH]c3ccccc23)C(=O)N[C@@H](CC(C)C)C(=O)N[C@@H](CC(C)C)C(=O)N[C@@H](C)C(=O)N[C@@H](CCC(N)=O)C(N)=O)C(C)C)NC(=O)[C@H](CCC(N)=O)NC(=O)[C@H](Cc2c[nH]cn2)NC1=O [mt-109] (H-YSQGTFTSDYSKYLDEIHQKDFVNWLLAQ-NH2; lactam 16-20; N-terminus assumed) | 0.78 | 76.92 | 6.99 | 
CC[C@H](C)[C@H](NC(=O)[C@H](CO)NC(=O)[C@H](Cc1ccc(O)cc1)NC(=O)[C@H](CC(=O)O)NC(=O)[C@H](CO)NC(=O)[C@@H](NC(=O)[C@H](Cc1ccccc1)NC(=O)[C@@H](NC(=O)CNC(=O)[C@H](CCC(N)=O)NC(=O)[C@H](CO)NC(=O)[C@@H](N)Cc1ccc(O)cc1)[C@@H](C)O)[C@@H](C)O)C(=O)N[C@@H](Cc1ccc(O)cc1)C(=O)N[C@@H](CC(C)C)C(=O)N[C@@H](CC(=O)O)C(=O)N[C@H]1CCC(=O)NCCCC[C@@H](C(=O)N[C@@H](CC(=O)O)C(=O)N[C@@H](Cc2ccccc2)C(=O)N[C@H](C(=O)N[C@@H](CC(N)=O)C(=O)N[C@@H](Cc2c[nH]c3ccccc23)C(=O)N[C@@H](CC(C)C)C(=O)N[C@@H](CC(C)C)C(=O)N[C@@H](C)C(=O)N[C@@H](CCC(N)=O)C(N)=O)C(C)C)NC(=O)[C@H](CCC(N)=O)NC(=O)[C@H](Cc2c[nH]cn2)NC(=O)[C@H]([C@@H](C)CC)NC1=O [mt-110] (H-YSQGTFTSDYSIYLDEIHQKDFVNWLLAQ-NH2; lactam 16-20; N-terminus assumed) | 1.49 | 23.26 | 9.62 | 
CC[C@H](C)[C@@H]1NC(=O)[C@@H](NC(=O)[C@H](CC(=O)O)NC(=O)[C@H](CC(C)C)NC(=O)[C@H](Cc2ccc(O)cc2)NC(=O)[C@H](CCCCN)NC(=O)[C@H](CO)NC(=O)[C@H](Cc2ccc(O)cc2)NC(=O)[C@H](CC(=O)O)NC(=O)[C@H](CO)NC(=O)[C@@H](NC(=O)[C@H](Cc2ccccc2)NC(=O)[C@@H](NC(=O)CNC(=O)[C@H](CCC(N)=O)NC(=O)[C@H](CO)NC(=O)[C@@H](N)Cc2c[nH]cn2)[C@@H](C)O)[C@@H](C)O)CCC(=O)NCCCC[C@@H](C(=O)N[C@@H](CC(=O)O)C(=O)N[C@@H](Cc2ccccc2)C(=O)N[C@H](C(=O)N[C@@H](CC(N)=O)C(=O)N[C@@H](Cc2c[nH]c3ccccc23)C(=O)N[C@@H](CC(C)C)C(=O)N[C@@H](CC(C)C)C(=O)N[C@@H](C)C(=O)N[C@@H](CCC(N)=O)C(N)=O)C(C)C)NC(=O)[C@H](CCC(N)=O)NC(=O)[C@H](Cc2c[nH]cn2)NC1=O [mt-111] (H-HSQGTFTSDYSKYLDEIHQKDFVNWLLAQ-NH2; lactam 16-20; N-terminus assumed) | 10.61 | 85.19 | 0.78 | 0.66
CC[C@H](C)[C@@H]1NC(=O)[C@@H](NC(=O)[C@H](CC(=O)O)NC(=O)[C@H](CC(C)C)NC(=O)[C@H](Cc2ccc(O)cc2)NC(=O)[C@H](CCCCN)NC(=O)[C@H](CO)NC(=O)[C@H](Cc2ccc(O)cc2)NC(=O)[C@H](CC(=O)O)NC(=O)[C@H](CO)NC(=O)[C@@H](NC(=O)[C@H](Cc2ccccc2)NC(=O)[C@@H](NC(=O)CNC(=O)[C@H](CCC(N)=O)NC(=O)[C@H](CO)NC(=O)[C@@H](N)Cc2c[nH]cn2)[C@@H](C)O)[C@@H](C)O)CCC(=O)NCCCC[C@@H](C(=O)N[C@@H](CC(=O)O)C(=O)N[C@@H](Cc2ccccc2)C(=O)N[C@H](C(=O)N[C@@H](CC(N)=O)C(=O)N[C@@H](Cc2c[nH]c3ccccc23)C(=O)N[C@@H](CC(C)C)C(=O)N[C@@H](CC(C)C)C(=O)N[C@@H](C)C(=O)NCC(=O)NCC(=O)N2CCC[C@H]2C(=O)N[C@@H](CO)C(=O)N[C@@H](CO)C(=O)NCC(=O)N[C@@H](C)C(=O)N2CCC[C@H]2C(=O)N2CCC[C@H]2C(=O)N2CCC[C@H]2C(=O)N[C@@H](CO)C(N)=O)C(C)C)NC(=O)[C@H](CCC(N)=O)NC(=O)[C@H](Cc2c[nH]cn2)NC1=O [mt-115] (H-HSQGTFTSDYSKYLDEIHQKDFVNWLLAGGPSSGAPPPS-NH2; lactam 16-20; N-terminus assumed) | 20.00 | 11.36 | 1.31 | 
CC[C@H](C)[C@@H]1NC(=O)[C@@H](NC(=O)[C@H](CC(=O)O)NC(=O)[C@H](CC(C)C)NC(=O)[C@H](Cc2ccc(O)cc2)NC(=O)[C@H](CCCCN)NC(=O)[C@H](CO)NC(=O)[C@H](Cc2ccc(O)cc2)NC(=O)[C@H](CC(=O)O)NC(=O)[C@H](CO)NC(=O)[C@@H](NC(=O)[C@H](Cc2ccccc2)NC(=O)[C@@H](NC(=O)CNC(=O)[C@H](CCC(N)=O)NC(=O)[C@H](CO)NC(=O)[C@@H](N)Cc2ccc(O)cc2)[C@@H](C)O)[C@@H](C)O)CCC(=O)NCCCC[C@@H](C(=O)N[C@@H](CCC(=O)O)C(=O)N[C@@H](Cc2ccccc2)C(=O)N[C@H](C(=O)N[C@@H](CC(N)=O)C(=O)N[C@@H](Cc2c[nH]c3ccccc23)C(=O)N[C@@H](CC(C)C)C(=O)N[C@@H](CC(C)C)C(=O)N[C@@H](C)C(=O)N[C@@H](CCC(N)=O)C(N)=O)C(C)C)NC(=O)[C@H](CCC(N)=O)NC(=O)[C@H](Cc2c[nH]cn2)NC1=O [mt-118] (H-YSQGTFTSDYSKYLDEIHQKEFVNWLLAQ-NH2; lactam 16-20; N-terminus assumed) | 2.34 | 125.00 | 6.39 | 
